Where a SMILES comes first, the peptide text is derived from it. [ ]: non-standard residue; d: D form. Cha = N[C@@H](CC1CCCCC1)C(=O)O; Chg = N[C@H](C(=O)O)C1CCCCC1; Tle = CC(C)(C)[C@H](N)C(=O)O; dDab = NCC[C@@H](N)C(=O)O; Orn = NCCC[C@H](N)C(=O)O; Dab = NCC[C@H](N)C(=O)O

In the series the test system is human red blood cells (hRBC). It is filed as cell-based. The conditions noted are these: red cells of human, 1 h. The method, then:
The peptides were tested for their hemolytic activity against human red blood cells (hRBC). Fresh hRBC were washed three times with phosphate buffered saline (PBS) and centrifuged for 10 min at 2000×g. Compounds (100 μg/ml) were incubated with 20% hRBC (v/v) for 1 h at 37° C. and shaking at 300 rpm. The final erythrocyte concentration was approximately 0.9×10^9 cells/ml. A value of 0% and 100% cell lyses, respectively, was determined by incubation of hRBC in the presence of PBS containing 0.001% acetic acid and 2.5% Triton X-100 in H2O, respectively. The samples were centrifuged, the supernatants were 8-fold diluted in PBS buffer and the optical densities (OD) were measured at 540 nm. The 100% lyses value (OD540H2O) gave an OD540 of approximately 0.5-1.0. Percent hemolysis was calculated as follows: (OD540peptide/OD540H2O)×100%.
As for `C[C@@H]1NC(=O)[C@H](C(C)(C)C)NC(=O)[C@H](CCN)NC(=O)[C@H](Cc2c[nH]c3ccccc23)NC(=O)[C@H](CCN)NC(=O)[C@H](CCN)NC(=O)[C@H](CCCN)NC(=O)[C@H](CCN)NC(=O)[C@H](CC2CCCCC2)NC(=O)[C@H](Cc2c[nH]cn2)NC(=O)[C@H](Cc2c[nH]c3ccccc23)NC(=O)[C@@H]2CCCN2C(=O)[C@H]2CCCN2C(=O)[C@H](CO)NC1=O` [compound 19, cyclo(-Trp-His-Cha-Dab-Orn-Dab-Dab-Trp-Dab-tBuGly-Ala-Ser-^DPro-Pro-)] (cyclo(WH[Cha][Dab][Orn][Dab][Dab]W[Dab][Tle]AS[dP]P)), the “Hemolysis at 100 μg/ml” value turned out to be 0%.
Next, `CC[C@H](C)[C@@H]1NC(=O)[C@@H]2CCCN2C(=O)[C@H]2CCCN2C(=O)[C@H](CO)NC(=O)[C@H](C)NC(=O)[C@H](C(C)(C)C)NC(=O)[C@H](CCN)NC(=O)[C@H](Cc2c[nH]c3ccccc23)NC(=O)[C@H](CCN)NC(=O)[C@@H](CCN)NC(=O)[C@H](CCCN)NC(=O)[C@H](CCN)NC(=O)[C@H](Cc2ccc(O)cc2)NC(=O)[C@H](Cc2c[nH]cn2)NC1=O` [compound 20, cyclo(-Ile-His-Tyr-Dab-Orn-^DDab-Dab-Trp-Dab-tBuGly-Ala-Ser-^DPro-Pro-)] (cyclo(IHY[Dab][Orn][dDab][Dab]W[Dab][Tle]AS[dP]P)): 0%; `CC[C@H](C)[C@@H]1NC(=O)[C@H](CCN)NC(=O)[C@H](Cc2c[nH]c3ccccc23)NC(=O)[C@H](CCN)NC(=O)[C@@H](CCN)NC(=O)[C@H](CCCN)NC(=O)[C@H](CCN)NC(=O)[C@H](Cc2ccc(O)cc2)NC(=O)[C@H](Cc2c[nH]cn2)NC(=O)[C@H]([C@@H](C)CC)NC(=O)[C@@H]2CCCN2C(=O)[C@H]2CCCN2C(=O)[C@H](CO)NC(=O)[C@H](C)NC1=O` [compound 21, cyclo(-Ile-His-Tyr-Dab-Orn-^DDab-Dab-Trp-Dab-Ile-Ala-Ser-^DPro-Pro-)] (cyclo(IHY[Dab][Orn][dDab][Dab]W[Dab]IAS[dP]P)): 1%; `CC(C)C[C@@H]1NC(=O)[C@@H]2CCCN2C(=O)[C@H]2CCCN2C(=O)[C@H](CO)NC(=O)[C@H](C)NC(=O)[C@H](C2CCCCC2)NC(=O)[C@H](CCN)NC(=O)[C@H](Cc2c[nH]c3ccccc23)NC(=O)[C@H](CCN)NC(=O)[C@H](CCN)NC(=O)[C@H](CCCN)NC(=O)[C@H](CCN)NC(=O)[C@H](Cc2ccc(O)cc2)NC(=O)[C@H](Cc2c[nH]cn2)NC1=O` [compound 22, cyclo(-Leu-His-Tyr-Dab-Orn-Dab-Dab-Trp-Dab-Chg-Ala-Ser-^DPro-Pro-)] (cyclo(LHY[Dab][Orn][Dab][Dab]W[Dab][Chg]AS[dP]P)): 0%.
Next, `CC(C)C[C@@H]1NC(=O)[C@@H]2CCCN2C(=O)[C@H]2CCCN2C(=O)[C@H](CO)NC(=O)[C@H](C)NC(=O)[C@H](C2CCCCC2)NC(=O)[C@H](CCN)NC(=O)[C@H](Cc2c[nH]c3ccccc23)NC(=O)[C@H](CCN)NC(=O)[C@@H](CCN)NC(=O)[C@H](CCCN)NC(=O)[C@H](CCN)NC(=O)[C@H](Cc2ccc(O)cc2)NC(=O)[C@H](Cc2c[nH]cn2)NC1=O` [compound 23, cyclo(-Leu-His-Tyr-Dab-Orn-^DDab-Dab-Trp-Dab-Chg-Ala-Ser-^DPro-Pro-)] (cyclo(LHY[Dab][Orn][dDab][Dab]W[Dab][Chg]AS[dP]P)): 3%; `CC(C)C[C@@H]1NC(=O)[C@@H]2CCCN2C(=O)[C@H]2CCCN2C(=O)[C@H](CO)NC(=O)[C@H](C)NC(=O)[C@H](C(C)(C)C)NC(=O)[C@H](CCN)NC(=O)[C@H](Cc2c[nH]c3ccccc23)NC(=O)[C@H](CCN)NC(=O)[C@@H](CCN)NC(=O)[C@H](CCCN)NC(=O)[C@H](CCN)NC(=O)[C@H](Cc2c[nH]c3ccccc23)NC(=O)[C@H](Cc2c[nH]cn2)NC1=O` [compound 24, cyclo(-Leu-His-Trp-Dab-Orn-^DDab-Dab-Trp-Dab-tBuGly-Ala-Ser-^DPro-Pro-)] (cyclo(LHW[Dab][Orn][dDab][Dab]W[Dab][Tle]AS[dP]P)): 1%; `CC(C)C[C@@H]1NC(=O)[C@@H]2CCCN2C(=O)[C@H]2CCCN2C(=O)[C@H](CO)NC(=O)[C@H](C)NC(=O)[C@H](C(C)(C)C)NC(=O)[C@H](CCN)NC(=O)[C@H](Cc2c[nH]c3ccccc23)NC(=O)[C@H](CCN)NC(=O)[C@@H](CCN)NC(=O)[C@H](CCCCN)NC(=O)[C@H](CCN)NC(=O)[C@H](Cc2ccc(O)cc2)NC(=O)[C@H](Cc2c[nH]cn2)NC1=O` [compound 25, cyclo(-Leu-His-Tyr-Dab-Lys-^DDab-Dab-Trp-Dab-tBuGly-Ala-Ser-^DPro-Pro-)] (cyclo(LHY[Dab]K[dDab][Dab]W[Dab][Tle]AS[dP]P)): 0%.
In the case of `CC(C)C[C@@H]1NC(=O)[C@@H]2CCCN2C(=O)[C@H]2CCCN2C(=O)[C@H](CO)NC(=O)[C@H](C)NC(=O)[C@H](CC2CCCCC2)NC(=O)[C@H](CCN)NC(=O)[C@H](Cc2c[nH]c3ccccc23)NC(=O)[C@H](CCN)NC(=O)[C@@H](CCN)NC(=O)[C@H](CCCN)NC(=O)[C@H](CCN)NC(=O)[C@H](Cc2ccc(O)cc2)NC(=O)[C@H](Cc2c[nH]c3ccccc23)NC1=O` [compound 26, cyclo(-Leu-Trp-Tyr-Dab-Orn-^DDab-Dab-Trp-Dab-Cha-Ala-Ser-^DPro-Pro-)] (cyclo(LWY[Dab][Orn][dDab][Dab]W[Dab][Cha]AS[dP]P)), the “Hemolysis at 100 μg/ml” value is listed as 1%.
For `CC(C)C[C@@H]1NC(=O)[C@@H]2CCCN2C(=O)[C@H]2CCCN2C(=O)[C@H](CO)NC(=O)[C@H](C)NC(=O)[C@H](C(C)(C)C)NC(=O)[C@H](CCN)NC(=O)[C@H](Cc2c[nH]c3ccccc23)NC(=O)[C@H](CCN)NC(=O)[C@@H](CCN)NC(=O)[C@H](CCCN)NC(=O)[C@H](CCN)NC(=O)[C@H](Cc2c[nH]c3ccccc23)NC(=O)[C@H](Cc2c[nH]c3ccccc23)NC1=O` [compound 27, cyclo(-Leu-Trp-Trp-Dab-Orn-^DDab-Dab-Trp-Dab-tBuGly-Ala-Ser-^DPro-Pro-)] (cyclo(LWW[Dab][Orn][dDab][Dab]W[Dab][Tle]AS[dP]P)), the “Hemolysis at 100 μg/ml” value stood at 0%.
In the case of `CC(C)C[C@@H]1NC(=O)[C@@H]2CCCN2C(=O)[C@H]2CCCN2C(=O)[C@H](CO)NC(=O)[C@H](C)NC(=O)[C@H](C(C)(C)C)NC(=O)[C@H](CCN)NC(=O)[C@H](Cc2c[nH]c3ccccc23)NC(=O)[C@H](CCN)NC(=O)[C@@H](CCN)NC(=O)[C@H](CCCN)NC(=O)[C@H](CCN)NC(=O)[C@H](Cc2ccc(O)cc2)NC(=O)[C@H](Cc2c[nH]c3ccccc23)NC1=O` [compound 28, cyclo(-Leu-Trp-Tyr-Dab-Orn-^DDab-Dab-Trp-Dab-tBuGly-Ala-Ser-^DPro-Pro-)] (cyclo(LWY[Dab][Orn][dDab][Dab]W[Dab][Tle]AS[dP]P)), the “Hemolysis at 100 μg/ml” value is recorded as 1%.
Turning to `CC(C)C[C@@H]1NC(=O)[C@@H]2CCCN2C(=O)[C@H]2CCCN2C(=O)[C@H](CO)NC(=O)[C@H](C)NC(=O)[C@H](Cc2c[nH]c3ccccc23)NC(=O)[C@H](CCN)NC(=O)[C@H](Cc2c[nH]c3ccccc23)NC(=O)[C@H](CCN)NC(=O)[C@@H](CCN)NC(=O)[C@H](CCCN)NC(=O)[C@H](CCN)NC(=O)[C@H](Cc2ccc(O)cc2)NC(=O)[C@H](Cc2c[nH]cn2)NC1=O` [compound 29, cyclo(-Leu-His-Tyr-Dab-Orn-^DDab-Dab-Trp-Dab-Trp-Ala-Ser-^DPro-Pro-)] (cyclo(LHY[Dab][Orn][dDab][Dab]W[Dab]WAS[dP]P)), the “Hemolysis at 100 μg/ml” value is given as 0%.
Turning to `CC(C)C[C@@H]1NC(=O)[C@@H]2CCCN2C(=O)[C@H]2CCCN2C(=O)[C@H](CO)NC(=O)[C@H](CO)NC(=O)[C@H](C(C)(C)C)NC(=O)[C@H](CCN)NC(=O)[C@H](Cc2c[nH]c3ccccc23)NC(=O)[C@H](CCN)NC(=O)[C@@H](CCN)NC(=O)[C@H](CCCN)NC(=O)[C@H](CCN)NC(=O)[C@H](Cc2ccc(O)cc2)NC(=O)[C@H](Cc2c[nH]cn2)NC1=O` [compound 30, cyclo(-Leu-His-Tyr-Dab-Orn-^DDab-Dab-Trp-Dab-tBuGly-Ser-Ser-^DPro-Pro-)] (cyclo(LHY[Dab][Orn][dDab][Dab]W[Dab][Tle]SS[dP]P)), the “Hemolysis at 100 μg/ml” value was 1%.
Next, `CC(C)C[C@@H]1NC(=O)[C@@H]2CCCN2C(=O)[C@H]2CCCN2C(=O)[C@H](CO)NC(=O)[C@H](CO)NC(=O)[C@H](CC2CCCCC2)NC(=O)[C@H](CCN)NC(=O)[C@H](Cc2c[nH]c3ccccc23)NC(=O)[C@H](CCN)NC(=O)[C@@H](CCN)NC(=O)[C@H](CCCCN)NC(=O)[C@H](CCN)NC(=O)[C@H](Cc2ccc(O)cc2)NC(=O)[C@H](Cc2c[nH]c3ccccc23)NC1=O` [compound 31, cyclo(-Leu-Trp-Tyr-Dab-Lys-^DDab-Dab-Trp-Dab-Cha-Ser-Ser-^DPro-Pro-)] (cyclo(LWY[Dab]K[dDab][Dab]W[Dab][Cha]SS[dP]P)): 1%; `CC(C)C[C@@H]1NC(=O)[C@@H]2CCCN2C(=O)[C@H]2CCCN2C(=O)[C@H](CO)NC(=O)[C@H](CO)NC(=O)[C@H](CC2CCCCC2)NC(=O)[C@H](CCN)NC(=O)[C@H](Cc2c[nH]c3ccccc23)NC(=O)[C@H](CCN)NC(=O)[C@@H](CCN)NC(=O)[C@H](CCCN)NC(=O)[C@H](CCN)NC(=O)[C@H](Cc2ccc(O)cc2)NC(=O)[C@H](Cc2c[nH]c3ccccc23)NC1=O` [compound 32, cyclo(-Leu-Trp-Tyr-Dab-Orn-^DDab-Dab-Trp-Dab-Cha-Ser-Ser-^DPro-Pro-)] (cyclo(LWY[Dab][Orn][dDab][Dab]W[Dab][Cha]SS[dP]P)): 3%.

(Values after US10370412B2, “Beta-hairpin peptidomimetics” (Polyphor AG, priority 2013, dated 2019).)
